Values quoted from earlier work, collected in patent publication US20100240621A1, “TOPICAL PHARMACEUTICAL COMPOSITION FOR THE COMBINATION OF FUSIDIC ACID AND A CORTICOSTEROID” (priority 2007, published 2010).

Tests used:
[1] = test system: oxacillin-sensitive staphylococcus aureus; conditions: at a concentration of 0.12 mg/L
[2] = test system: oxacillin-resistant staphylococcus aureus; conditions: at a concentration of 2 mg/L
[3] = test system: staphylococcus epidermidis; conditions: at 4 mg/L
[4] = solution, cream, and ointment formulations
[5] = in vivo

For CC(=O)O[C@H]1C[C@@]2(C)[C@@H](C[C@@H](O)[C@H]3[C@@]4(C)CC[C@@H](O)[C@@H](C)[C@@H]4CC[C@@]32C)/C1=C(\CCC=C(C)C)C(=O)O [Fusidic acid], the “concentration at which 90% of organisms inhibited” value (most Bacteroides species) is listed as at most 2 mg/L, the “concentration at which 90% of organisms inhibited” value (Clostridium species) is listed as at most 2 mg/L and the “concentration at which 90% of organisms inhibited” value (Propionibacterium Danes) is listed as at most 2 mg/L. The “oxacillin-sensitive staphylococcus aureus inhibited” value [1] was 100%, the “oxacillin-resistant staphylococcus aureus inhibited” value [2] was “At least 99%” and the “concentration at which 90% of organisms inhibited” value (Peptococcus species) was at most 2 mg/L. For the same molecule, the staphylococcus epidermidis inhibited [3] was 99%.

In the case of CCC(=O)O[C@]1(C(=O)CCl)[C@@H](C)C[C@H]2[C@@H]3C[C@H](F)C4=CC(=O)C=C[C@]4(C)[C@@]3(F)[C@@H](O)C[C@@]21C [Halobetasol propionate], the “potency class by vasoconstrictor assay” value [4] is given as “super high-potency” and the “applied dose entering the circulation” value [5] is given as “less than 6%”.
